Results from PubChem BioAssay AID449750 (Broad Institute, 2010).
Calls of active or inactive are those of the source. How the calls were made is not given here.

assay: non-covalent RecA intein splicing inhibitors, dose response, biochemical, cell-free, fluorescence, secondary screen (AID 449750)

Row | SMILES | AC50
1 | COc1cc(C(c2c(C)[nH][nH]c2=O)c2c(C)[nH][nH]c2=O)ccc1OS(=O)(=O)c1ccc(C)cc1 | 8.13 µM
2 | CCOc1cc(/C=N\NC(=O)OC(C)(C)C)ccc1OC(=O)c1ccco1 | > 38 µM (inactive)
3 | O=C1/C(=C/c2ccc3c(c2)OCO3)CCC/C1=C\c1ccc2c(c1)OCO2 | > 38 µM (inactive)
4 | O=[N+]([O-])c1c(NCc2ccco2)ccc2nonc12 | > 38 µM (inactive)
5 | [O-][N+]1=c2ccc(Nc3ccccc3)cc2=NC12CCCCC2 | 16.7 µM
6 | O=C1C(Nc2ccccc2)=C(N2CCCCC2)C(=O)c2ccccc21 | 12.6 µM
7 | COc1cccc(C(=O)Nc2nc(SCc3ccc(Cl)cc3)n[nH]2)c1 | > 38 µM (inactive)
8 | O=C1CC(CSc2ccc(Cl)cc2)=NN1 | 25 µM
9 | N#Cc1ncc(-c2ccc3c(c2)OCCOCCOCCOCCO3)nc1C#N | > 38 µM (inactive)
10 | Cc1nn(-c2cccc(Cl)c2)c2c1C(c1cccnc1)C(C#N)=C(N)O2 (centres undefined) | 34.6 µM
11 | CNCC(O)CN(c1ccccc1)c1ccccc1 (centres undefined) | 10.5 µM
12 | Nc1ccc2nc(CCCCc3nc4ccccc4[nH]3)[nH]c2c1 | > 38 µM (inactive)
13 | Cc1c(C)n(O)c2ccc3nonc3c12 | 26.8 µM
14 | Cc1[nH][nH]c(=O)c1C(c1ccc(-c2ccccc2C(=O)O)o1)c1c(C)[nH][nH]c1=O | 3.19 µM
15 | O=C(Nc1ccc(F)cc1)c1nn(-c2ccccc2)c(=O)cc1Cl | 22.1 µM
16 | Cc1ccc(C)c(S(=O)(=O)Nc2ccc(O)c3ccccc23)c1 | 0.598 µM
17 | CNC(=O)c1nnsc1S(=O)c1ccc(Cl)cc1 (centres undefined) | > 38 µM (inactive)
18 | O=S(=O)(Nc1cc2nc3ccccc3nc2n1Cc1ccccc1)c1ccc(Cl)cc1 | 5.18 µM
19 | COc1cccc(-c2[nH]nc3c2C(c2ccc(C)o2)C(C#N)=C(N)O3)c1 (centres undefined) | 26.2 µM
20 | N#CC(c1ccccc1)c1cnccn1 (centres undefined) | > 38 µM (inactive)
21 | CC(C)CCn1c(N)c(C(=O)NCc2cccs2)c2nc3ccccc3nc21 | > 38 µM (inactive)
22 | COc1ccc(N(C(=O)CCl)C(C(=O)NC2CCCCC2)c2cccnc2)cc1 (centres undefined) | 3.87 µM
23 | CSc1nc(-c2ccco2)nn1C(=O)c1cccs1 | > 38 µM (inactive)
24 | CCOC(=O)Cc1[nH]nc2c1C(c1ccsc1)C(C#N)=C(N)O2 (centres undefined) | > 38 µM (inactive)
25 | O=C(C1=C(c2ccccc2)C(=O)c2ccccc2C1=O)c1ccccc1 | 3.45 µM
26 | COc1ccccc1NC(=O)c1cnc(SCC(=O)NCC2CCCO2)n(C)c1=O (centres undefined) | > 38 µM (inactive)

Row | SMILES | AC50
27 | Cc1[nH][nH]c(=O)c1C(c1ccc(F)cc1)c1c(C)[nH][nH]c1=O | 11.9 µM
28 | CCOC(=O)CC1=NN(c2ccccc2)C(=O)/C1=C\c1ccc(OC)cc1OC | 2.34 µM
29 | CCN(CC)S(=O)(=O)c1cc(NC(=O)Cn2ncc(Cl)c(Cl)c2=O)ccc1C | 38.7 µM
30 | CC1=NN(c2ccc(Cl)c(C(=O)O)c2)C(=O)/C1=C\c1ccc(-c2ccc(C(=O)O)cc2)o1 | 34.1 µM
31 | COc1ccc(C(N)c2nccc3cc(OC)c(OC)cc23)cc1OC (centres undefined) | > 38 µM (inactive)
32 | N[C@@H]1CCCC[C@H]1N.O=C(O)C(=O)O.[Pt] | > 38 µM (inactive)
33 | O=S(=O)(Nc1c(O)ccc2ccccc12)c1ccc(F)cc1 | 13.3 µM
34 | COc1cc(C=C(c2nc3ccccc3s2)c2nc3ccccc3s2)ccc1O | 3.26 µM
35 | CCCC(=O)N(C1CC(C)C(C#N)(C#N)C1(C#N)C#N)N(C)C (centres undefined) | > 38 µM (inactive)
36 | COc1ccc(CN(C(=O)CSc2nnc(-c3ccccc3C)o2)c2ccc(F)cc2)cc1 | 21.9 µM
37 | O=C(NCc1cccnc1)/C(=C\c1ccc(-c2cccc(Cl)c2)o1)S(=O)(=O)c1ccccc1 | 26.9 µM
38 | CCOC(=O)c1cnc(-n2[nH]c(C)c(Cc3ccccc3)c2=O)[nH]c1=O | > 38 µM (inactive)
39 | CCOC(=O)Cc1c(C)c2c(C)[nH]nc2oc1=O | > 38 µM (inactive)
40 | Cc1cccc(Nc2nc(NCc3ccco3)c3ccccc3n2)c1 | 8.01 µM
41 | c1ccc(-c2ccc(C3CCCN3)cc2)cc1 (centres undefined) | > 38 µM (inactive)
42 | O=C1C(Cl)=C(N2CCC(C(=O)O)CC2)C(=O)c2ccccc21 | 1.41 µM
43 | CCCc1[nH][nH]c(=O)c1C(c1ccc(Br)cc1)C(C#N)C#N (centres undefined) | 32.2 µM
44 | COC(=O)c1ccc(C(c2c(C)[nH][nH]c2=O)c2c(C)[nH][nH]c2=O)cc1 | > 38 µM (inactive)
45 | CC1=NN(Cc2ccccc2)C(=O)C1C(c1ccc(Cl)cc1)C(C#N)C#N (centres undefined) | 31 µM
46 | CC(C)c1[nH]nc2c1C(c1ccco1)C(C#N)=C(N)O2 (centres undefined) | > 38 µM (inactive)
47 | O=c1c2c([nH]n1-c1ccccc1)CCSC2 | 36.5 µM
48 | COc1ccc(CNC(=O)c2c(C)oc3c2C(=O)c2ccccc2C3=O)cc1 | 14.3 µM
49 | COc1ccc(CN2CCNC(=O)C2CC(=O)N(C)Cc2ccncn2)c(OC)c1 (centres undefined) | > 38 µM (inactive)
50 | Cc1nc(Nc2ccc(O)cc2)c2c3c(sc2n1)CCCC3 | > 38 µM (inactive)
51 | CCOC(=O)c1c(NC(C)=O)sc2c1CCC(C=NCCCN(CC)CC)=C2Sc1ccccc1 | 0.311 µM
52 | COc1ccc(N2CCN(C(=O)c3ccc(Oc4ccc(C(F)(F)F)cn4)cc3)CC2)cc1 | > 38 µM (inactive)

Row | SMILES | AC50
53 | CCCc1[nH]nc2c1C(c1ccc(OC(=O)N3CCOCC3)c(OC)c1)C(C#N)=C(N)O2 (centres undefined) | > 38 µM (inactive)
54 | Cc1ccc(NC(=O)c2nc(S(=O)(=O)Cc3ccccc3)ncc2Cl)cc1 | > 38 µM (inactive)
55 | Cc1nn(-c2ccccc2)c2c1C(c1ccncc1)C(C#N)=C(N)O2 (centres undefined) | > 38 µM (inactive)
56 | c1ccc(CNc2nc(NCc3ccccc3)c3ccccc3n2)cc1 | 7.61 µM
57 | Cc1nc2c(=O)n(C)c(=O)nc-2n(C)n1 | 0.0855 µM
58 | CC(NC(=O)COC(=O)c1cc(NS(=O)(=O)c2ccc(Cl)c([N+](=O)[O-])c2)ccc1O)C1CC2CCC1C2 (centres undefined) | 1.67 µM
59 | Cc1nn(-c2ccccc2)c(Cl)c1CN(C(=O)CCl)c1ccc(Cl)cc1 | 1.28 µM
60 | Cc1ccc(NC2=C/C(=N\S(=O)(=O)c3cccs3)c3ccccc3C2=O)c(C)c1 | 0.304 µM
61 | CS(=O)(=O)c1nc(-c2ccco2)cc(C(F)(F)F)n1 | > 38 µM (inactive)
62 | CCOC(=O)c1c(NC(=O)c2ccco2)n(C2CCCCC2)c2nc3ccccc3nc12 | > 12 µM (inactive)
63 | CN1c2ccccc2C(C)(C)C12C=Nc1c(cc(N3CCOCC3)c3ccccc13)O2 (centres undefined) | > 38 µM (inactive)
64 | COc1ccc(OC)c(C(c2c(C)[nH][nH]c2=O)c2c(C)[nH][nH]c2=O)c1 | 13.5 µM
65 | Cc1cccc(N(Cc2ccccc2)C(=O)CCl)c1 | 2.06 µM
66 | CCOC(=O)c1ccc(-n2[nH]c(-c3ccccc3)cc2=O)cc1 | 5.45 µM
67 | CCOC(=O)Cc1[nH]nc2c1C(c1cccc(OC)c1OC)C(C#N)=C(N)O2 (centres undefined) | 11.5 µM
68 | C#CCOC(=O)c1ccccc1C(=O)n1nnc2ccccc21 | > 38 µM (inactive)
69 | COc1cc(C2(c3ccc(O)c(OC)c3)C(=O)Nc3c(C)cc(Br)cc32)ccc1O | 9.32 µM
70 | CC1=NN(c2ccccc2)C(=O)/C1=C\c1cn(CCC#N)nc1-c1ccc(Cl)cc1 | > 38 µM (inactive)
71 | COC(=O)c1nc(NC(=O)c2ccc(C(C)(C)C)cc2)n[nH]1 | > 38 µM (inactive)
72 | COc1ccc(-c2cc(=O)n(CCC#N)[nH]2)cc1 | 3.3 µM
73 | O=C(Oc1ccc(N2C(=O)C3C4CCC(C4)C3C2=O)cc1)c1ccco1 (centres undefined) | > 38 µM (inactive)
74 | CCSC1(SCC)N=C(N)C2(C#N)C(c3ccc(F)cc3)C12C#N (centres undefined) | 38.3 µM
75 | O=C(Oc1cccc(OC(=O)c2ccco2)c1)c1ccco1 | 5.11 µM
76 | CC(Oc1ccc(F)cc1)C(=O)Oc1ccc(N(C)S(=O)(=O)c2ccccc2)cc1 (centres undefined) | > 38 µM (inactive)
77 | S=C1Cc2ccccc2N1 | 3.46 µM
78 | O=C(NN=c1c(=O)c2ccccc2c1=O)c1ccccc1 | 8.96 µM

Row | SMILES | AC50
79 | COc1ccc(-c2cc(C(F)(F)F)nc(S(=O)(=O)CCCC(=O)Nc3cccc(O)c3)n2)cc1OC | > 38 µM (inactive)
80 | COc1ccc(C(O)c2nccc3cc(OC)c(OC)cc23)cc1OC (centres undefined) | > 38 µM (inactive)
81 | Fc1ccc(Nc2nc(Oc3ccccc3F)nc(N3CCCC3)n2)cc1 | > 38 µM (inactive)
82 | Cc1ccc(NC(=O)COc2cccc(/C=C3\SC(=S)N(CCC(=O)O)C3=O)c2)cc1Cl | 10.2 µM
83 | O=C(c1cccs1)[C@@H]1[C@@H]2C(=O)N(Cc3ccc4c(c3)OCO4)C(=O)[C@@H]2C2c3ccccc3C=CN21 (some centres undefined) | 3.81 µM
84 | COc1cccc(N2CC(C(=O)Nc3nnc(SCC(=O)c4ccccc4)s3)CC2=O)c1 (centres undefined) | > 38 µM (inactive)
85 | Cc1ccc(S(=O)(=O)/N=C2/C=C(C3C(=O)CC(C)(C)CC3=O)C(=O)c3ccccc32)cc1 | > 38 µM (inactive)
86 | Oc1cccc(C=Nc2cccc3ccccc23)c1O | 4.42 µM
87 | Cc1ccc(N2C(=O)C(Cl)=C(N3CCOCC3)C2=O)c(C)c1 | > 38 µM (inactive)
88 | N#CC1=C(N)Oc2n[nH]c(-c3ccccc3)c2C1c1cccc(OC(=O)N2CCOCC2)c1 (centres undefined) | 32.7 µM
89 | O=C1c2[nH]nc(-c3ccccc3O)c2C(c2cccc(Cl)c2)N1Cc1ccco1 (centres undefined) | > 38 µM (inactive)
90 | CCCn1c(=O)[nH]c(=O)c2c1nc(-c1ccc(OC(F)F)c(OC)c1)n2CCOC | > 38 µM (inactive)
91 | COc1cc(C=C2C(=O)c3ccccc3C2=O)ccc1O | > 38 µM (inactive)
92 | CCOc1cc(C(c2c(C)[nH][nH]c2=O)c2c(C)[nH][nH]c2=O)cc([N+](=O)[O-])c1O | 13.1 µM
93 | CC1=NNC(=O)C1C(c1ccccc1)C(C#N)C#N (centres undefined) | > 38 µM (inactive)
94 | Cn1c(=O)c([N+](=O)[O-])c(Cl)c2ccccc21 | > 38 µM (inactive)
95 | Cc1[nH][nH]c(=O)c1[C@@H](c1ccccc1[N+](=O)[O-])C(C#N)C#N | > 38 µM (inactive)
96 | c1ccc(CCNCc2cccs2)cc1 | > 38 µM (inactive)
97 | Cc1cc2[nH]ncc2cc1NC(=S)NC(=O)c1ccccc1 | > 38 µM (inactive)
98 | COc1cc(C(c2c(C)[nH][nH]c2=O)c2c(C)[nH][nH]c2=O)cc(Br)c1OC | 13.9 µM
99 | O=C(CCl)Nc1cccc(-c2cnc3ccccc3n2)c1 | 16.5 µM
100 | Cc1[nH]n(-c2ccccc2)c(=O)c1C(c1ccccc1[N+](=O)[O-])C(C#N)C#N (centres undefined) | 9.48 µM
101 | COc1ccc(/C=C2/C(=O)N(c3ccccc3)N=C2C)c(OC)c1 | 18.5 µM
102 | O=C1C(Cl)=C(N2CCOCC2)C(=O)N1c1ccccc1F | > 38 µM (inactive)
103 | CCOC(=O)c1c(CCl)nc2ccccc2c1-c1ccccc1 | 8.34 µM
104 | O=C1C=C(NCc2ccccc2)c2ccccc2C1=O | 5.91 µM
